Assay results published in ChEMBL document CHEMBL1150213, “Protein-tyrosine kinase inhibition: mechanism-based discovery of antitumor agents” (J Nat Prod, 1992).
Converted amounts (≈) assume the structure as drawn.

Legend:
NRK = assay: Growth inhibition of Rous sarcoma virus-transformed rat NRK cells; type: cell-based
[1] = biological target: T1, Proto-oncogene tyrosine-protein kinase Src (Homo sapiens, UniProt P12931)
Description: Inhibition of p60c-src expressed in chick embryo fibroblast

L1210 [2] = assay: Cytotoxicity against mouse L1210 cells; type: functional
[3] = Cytotoxicity against Rous sarcoma virus-infected rat kidney cells; type: functional
L1210 [4] = assay: Iv vivo cytotoxicity against mouse L1210 cells relative to control in presence of foroxymithine; type: functional
A-431 = assay: Cytotoxicity against human A431 cells; type: functional
[5] = biological target: Epidermal growth factor receptor (Homo sapiens, UniProt P00533)
HCT-15 = assay: Cytotoxicity against human HCT15 cells; type: functional
ACHN = assay: Cytotoxicity against human ACHN cells; type: functional
OVCAR-4 = assay: Cytotoxicity against human OVCAR4 cells; type: functional
CAKI-1 = assay: Cytotoxicity against human Caki1 cells; type: functional
[6] = biological target: Tyrosine-protein kinase Lck (Homo sapiens, UniProt P06239)
A498 = assay: Cytotoxicity against human A498 cells; type: functional
OVCAR-5 = assay: Cytotoxicity against human OVCAR5 cells; type: functional
RPMI-8226 = assay: Cytotoxicity against human RPMI8226 cells; type: functional, cell-based
UACC-257 = assay: Cytotoxicity against human UACC257 cells; type: functional
U-251 = assay: Cytotoxicity against human U251 cells; type: functional
HL-60(TB) = assay: Cytotoxicity against human HL-60(TB) cells; type: functional, cell-based
RXF 393 = assay: Cytotoxicity against human RXF393 cells; type: functional
COLO 205 = assay: Cytotoxicity against human COLO205 cells; type: functional
HCT-116 = assay: Cytotoxicity against human HCT116 cells; type: functional
SF-268 = assay: Cytotoxicity against human SF268 cells; type: functional
KM-20L2 = assay: Cytotoxicity against human KM20L2 cells; type: functional
SW-620 = assay: Cytotoxicity against human SW620 cells; type: functional
HOP-18 = assay: Cytotoxicity against human HOP18 cells; type: functional
SK-OV-3 = assay: Cytotoxicity against human SKOV3 cells; type: functional
[7] = Cytotoxicity against human RXF631 cells; type: functional
NCI-H23 = assay: cells; settings: Homo sapiens
Description: Cytotoxicity against human NCI-H23 cells

M14 = assay: Cytotoxicity against human M14 cells; type: functional
DMS-273 = assay: Cytotoxicity against human DMS273 cells; type: functional
SK-MEL-2 = assay: Cytotoxicity against human SK-MEL-2 cells; type: functional
SNB-19 = assay: Cytotoxicity against human SNB19 cells; type: functional
HCC 2998 = assay: Cytotoxicity against human HCC2998 cells; type: functional
NCI-H522 = assay: Cytotoxicity against human NCI-H522 cells; type: functional
HT-29 = assay: Cytotoxicity against human HT-29 cells; type: functional
DLD-1 = assay: Cytotoxicity against human DLD1 cells; type: functional
TK-10 = assay: Cytotoxicity against human TK10 cells; type: functional
LOX IMVI = assay: Cytotoxicity against human LOXIMVI cells; type: functional
MOLT-4 = assay: Cytotoxicity against human MOLT4 cells; type: functional, cell-based
[8] = Cytotoxicity against human LXFL 529L cells; type: functional
[9] = Cytotoxicity against human 786-O cells; type: functional
SK-MEL-28 = assay: Cytotoxicity against human SK-MEL-28 cells; type: functional
Malme-3M = assay: Cytotoxicity against human MALME-3M cells; type: functional
SR = assay: Cytotoxicity against human SR cells; type: functional, cell-based
SK-MEL-5 = assay: Cytotoxicity against human SK-MEL-5 cells; type: functional
HOP-92 = assay: Cytotoxicity against human HOP92 cells; type: functional
A549 = assay: Cytotoxicity against human A549 cells; type: functional
CCRF-CEM = assay: Cytotoxicity against human CCRF-CEM cells; type: functional, cell-based
NCI-H460 = assay: Cytotoxicity against human NCI-H460 cells; type: functional
KM12 = assay: Cytotoxicity against human KM12 cells; type: functional
SN12C = assay: Cytotoxicity against human SN12C cells; type: functional
SNB-75 = assay: Cytotoxicity against human SNB75 cells; type: functional
SNB-78 = assay: Cytotoxicity against human SNB78 cells; type: functional
DMS-114 = assay: Cytotoxicity against human DMS114 cells; type: functional
XF498 = assay: Cytotoxicity against human XF498 cells; type: functional
NCI-H226 = assay: Cytotoxicity against human NCI-H226 cells; type: functional
NCI-H322M = assay: Cytotoxicity against human NCI-H322M cells; type: functional
SF-295 = assay: Cytotoxicity against human SF295 cells; type: functional
HOP-62 = assay: Cytotoxicity against human HOP62 cells; type: functional
K562 = assay: Cytotoxicity against human K562 cells; type: functional, cell-based
[10] = biological target: Tyrosine-protein kinase transforming protein Fps (Fujinami sarcoma virus, UniProt P00530); assay: Inhibition of Fujinami sarcoma virus pp130fps
Insulin receptor = Insulin receptor (Homo sapiens, UniProt P06213); assay: Inhibition of insulin receptor
[11] = biological target: T1, Proto-oncogene tyrosine-protein kinase Src; assay: Inhibition of p60 src
[12] = read-out: Log10GI50 (converted)
[13] = read-out: Log10LC50 (converted)

T1 sequence (P12931 2-536 limits assumed): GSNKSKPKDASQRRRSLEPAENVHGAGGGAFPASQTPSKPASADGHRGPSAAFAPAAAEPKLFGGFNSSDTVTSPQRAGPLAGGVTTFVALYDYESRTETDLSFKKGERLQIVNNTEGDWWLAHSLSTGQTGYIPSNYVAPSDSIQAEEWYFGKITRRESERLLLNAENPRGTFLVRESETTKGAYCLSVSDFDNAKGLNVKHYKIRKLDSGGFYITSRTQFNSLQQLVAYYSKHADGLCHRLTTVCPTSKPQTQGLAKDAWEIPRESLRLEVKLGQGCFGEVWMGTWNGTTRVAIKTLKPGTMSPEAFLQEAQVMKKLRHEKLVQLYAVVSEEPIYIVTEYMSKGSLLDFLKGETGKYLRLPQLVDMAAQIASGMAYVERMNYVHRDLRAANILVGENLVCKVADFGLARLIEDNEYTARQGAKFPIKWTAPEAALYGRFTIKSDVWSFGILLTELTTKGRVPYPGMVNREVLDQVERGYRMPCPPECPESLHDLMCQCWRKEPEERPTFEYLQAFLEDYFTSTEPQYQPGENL
Chain of Insulin receptor (P06213 28-758 limits assumed): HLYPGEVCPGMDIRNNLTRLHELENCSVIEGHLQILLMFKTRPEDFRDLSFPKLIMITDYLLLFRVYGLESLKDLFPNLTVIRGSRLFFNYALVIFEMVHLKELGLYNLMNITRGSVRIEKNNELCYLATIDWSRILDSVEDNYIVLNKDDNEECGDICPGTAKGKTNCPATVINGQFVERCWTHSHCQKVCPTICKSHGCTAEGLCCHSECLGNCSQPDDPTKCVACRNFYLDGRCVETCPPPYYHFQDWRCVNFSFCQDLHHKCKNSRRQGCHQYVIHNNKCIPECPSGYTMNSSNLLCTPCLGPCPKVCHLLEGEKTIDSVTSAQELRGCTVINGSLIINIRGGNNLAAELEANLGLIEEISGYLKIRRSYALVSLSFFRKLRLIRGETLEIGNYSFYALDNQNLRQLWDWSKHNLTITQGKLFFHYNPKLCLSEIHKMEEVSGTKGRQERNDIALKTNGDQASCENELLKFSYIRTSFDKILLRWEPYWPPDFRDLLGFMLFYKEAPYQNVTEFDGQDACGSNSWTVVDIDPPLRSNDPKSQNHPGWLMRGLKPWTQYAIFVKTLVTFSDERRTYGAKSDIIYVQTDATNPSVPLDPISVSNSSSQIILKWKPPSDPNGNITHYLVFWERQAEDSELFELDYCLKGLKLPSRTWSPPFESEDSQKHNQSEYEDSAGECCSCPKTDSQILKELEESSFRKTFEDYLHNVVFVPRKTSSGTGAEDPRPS
Chain of Insulin receptor (P06213 763-1382 limits assumed): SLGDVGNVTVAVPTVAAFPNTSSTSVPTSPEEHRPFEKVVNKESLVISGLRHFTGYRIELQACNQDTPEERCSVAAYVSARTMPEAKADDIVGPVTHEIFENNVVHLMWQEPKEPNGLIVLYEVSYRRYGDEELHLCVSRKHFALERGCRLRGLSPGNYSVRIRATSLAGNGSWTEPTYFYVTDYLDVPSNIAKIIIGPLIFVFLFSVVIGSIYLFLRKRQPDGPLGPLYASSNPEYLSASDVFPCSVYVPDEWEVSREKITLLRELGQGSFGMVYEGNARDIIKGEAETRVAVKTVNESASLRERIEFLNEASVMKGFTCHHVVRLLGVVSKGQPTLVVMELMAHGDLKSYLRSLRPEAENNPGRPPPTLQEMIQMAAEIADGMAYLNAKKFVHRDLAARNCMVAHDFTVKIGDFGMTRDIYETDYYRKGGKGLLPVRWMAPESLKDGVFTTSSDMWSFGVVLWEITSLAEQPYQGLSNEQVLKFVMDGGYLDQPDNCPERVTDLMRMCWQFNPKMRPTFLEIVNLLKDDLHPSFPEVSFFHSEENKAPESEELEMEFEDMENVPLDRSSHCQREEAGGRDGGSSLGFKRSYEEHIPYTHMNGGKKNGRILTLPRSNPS
Chain of Tyrosine-protein kinase transforming protein Fps (P00530 whole entry): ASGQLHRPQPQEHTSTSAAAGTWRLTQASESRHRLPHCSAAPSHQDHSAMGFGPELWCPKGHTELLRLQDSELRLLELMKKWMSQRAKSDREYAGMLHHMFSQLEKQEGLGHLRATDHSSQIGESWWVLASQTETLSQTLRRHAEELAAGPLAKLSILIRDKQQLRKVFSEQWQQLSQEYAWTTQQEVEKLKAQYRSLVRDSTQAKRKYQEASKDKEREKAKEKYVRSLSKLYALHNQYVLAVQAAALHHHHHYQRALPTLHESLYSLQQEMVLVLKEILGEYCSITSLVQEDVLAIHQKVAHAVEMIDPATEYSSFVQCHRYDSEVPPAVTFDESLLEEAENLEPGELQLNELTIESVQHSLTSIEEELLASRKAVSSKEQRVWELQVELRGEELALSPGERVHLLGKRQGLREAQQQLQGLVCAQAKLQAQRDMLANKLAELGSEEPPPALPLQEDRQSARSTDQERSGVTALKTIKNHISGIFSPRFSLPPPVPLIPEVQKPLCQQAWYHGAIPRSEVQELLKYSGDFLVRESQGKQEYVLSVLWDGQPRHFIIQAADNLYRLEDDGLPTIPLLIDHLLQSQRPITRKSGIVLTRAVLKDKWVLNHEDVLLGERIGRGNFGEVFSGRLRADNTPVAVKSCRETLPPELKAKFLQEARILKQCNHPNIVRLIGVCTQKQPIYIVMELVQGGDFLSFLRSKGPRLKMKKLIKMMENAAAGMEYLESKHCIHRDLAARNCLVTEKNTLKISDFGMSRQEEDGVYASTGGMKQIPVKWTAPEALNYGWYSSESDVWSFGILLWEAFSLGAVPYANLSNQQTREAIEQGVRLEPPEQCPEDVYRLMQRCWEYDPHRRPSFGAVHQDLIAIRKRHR
Chain of Tyrosine-protein kinase Lck (P06239 whole entry): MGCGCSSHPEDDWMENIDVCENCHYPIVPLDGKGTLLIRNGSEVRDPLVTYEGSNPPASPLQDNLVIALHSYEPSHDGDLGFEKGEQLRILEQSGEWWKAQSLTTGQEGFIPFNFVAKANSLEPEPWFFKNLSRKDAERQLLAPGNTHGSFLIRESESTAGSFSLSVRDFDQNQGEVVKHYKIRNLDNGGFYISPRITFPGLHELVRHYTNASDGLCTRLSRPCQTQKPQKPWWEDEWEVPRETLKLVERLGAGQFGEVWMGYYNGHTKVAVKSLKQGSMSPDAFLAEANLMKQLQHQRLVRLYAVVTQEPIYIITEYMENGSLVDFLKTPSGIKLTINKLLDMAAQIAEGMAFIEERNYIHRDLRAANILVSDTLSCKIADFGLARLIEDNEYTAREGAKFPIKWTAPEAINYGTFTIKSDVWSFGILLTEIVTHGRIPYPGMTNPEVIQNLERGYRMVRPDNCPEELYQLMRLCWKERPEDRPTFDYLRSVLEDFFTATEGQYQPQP
Chain of Epidermal growth factor receptor (P00533 whole entry): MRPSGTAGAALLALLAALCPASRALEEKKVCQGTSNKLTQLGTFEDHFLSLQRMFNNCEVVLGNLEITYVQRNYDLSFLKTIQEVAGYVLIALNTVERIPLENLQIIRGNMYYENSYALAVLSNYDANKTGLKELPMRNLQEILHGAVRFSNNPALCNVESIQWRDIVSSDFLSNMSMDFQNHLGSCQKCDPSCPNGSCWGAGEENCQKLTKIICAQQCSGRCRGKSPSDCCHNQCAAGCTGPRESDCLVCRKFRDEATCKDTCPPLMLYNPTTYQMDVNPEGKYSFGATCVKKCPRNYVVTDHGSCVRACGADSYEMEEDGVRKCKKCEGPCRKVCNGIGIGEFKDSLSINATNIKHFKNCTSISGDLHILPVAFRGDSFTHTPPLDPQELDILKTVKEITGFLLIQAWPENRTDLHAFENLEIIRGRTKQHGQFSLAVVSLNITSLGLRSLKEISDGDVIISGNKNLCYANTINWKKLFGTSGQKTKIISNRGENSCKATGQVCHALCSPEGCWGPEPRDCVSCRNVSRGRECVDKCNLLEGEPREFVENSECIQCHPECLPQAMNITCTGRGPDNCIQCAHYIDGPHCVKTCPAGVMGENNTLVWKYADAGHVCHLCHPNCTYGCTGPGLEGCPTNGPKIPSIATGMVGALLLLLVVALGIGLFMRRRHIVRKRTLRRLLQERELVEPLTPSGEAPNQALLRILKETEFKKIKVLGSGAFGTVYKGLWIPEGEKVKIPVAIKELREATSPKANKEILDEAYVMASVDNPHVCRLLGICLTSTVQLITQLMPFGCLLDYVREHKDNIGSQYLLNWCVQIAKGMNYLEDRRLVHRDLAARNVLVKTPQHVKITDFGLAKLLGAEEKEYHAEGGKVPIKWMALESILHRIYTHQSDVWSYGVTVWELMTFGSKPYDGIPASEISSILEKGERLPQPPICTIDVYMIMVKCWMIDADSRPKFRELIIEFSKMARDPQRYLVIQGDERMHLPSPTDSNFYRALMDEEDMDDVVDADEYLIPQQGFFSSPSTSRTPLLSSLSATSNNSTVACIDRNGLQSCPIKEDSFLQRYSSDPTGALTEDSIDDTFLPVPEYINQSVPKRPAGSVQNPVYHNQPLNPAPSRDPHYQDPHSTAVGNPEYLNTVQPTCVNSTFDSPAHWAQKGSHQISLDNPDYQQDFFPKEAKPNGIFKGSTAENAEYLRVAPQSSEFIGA

## O=c1c(-c2ccc(O)c(O)c2)coc2cc(O)cc(O)c12 [OROBOL]
NRK
  IC50: 4 µg/mL (≈ 14 µM)

## Nc1ncnc2c1ncn2[C@@H]1O[C@H](COP(=O)(O)O)[C@@H](O)[C@H]1O [ADENOSINE PHOSPHATE]
[1]
  IC50: 0.1 µM

## Nc1nc2c(ncn2[C@@H]2O[C@H](COP(=O)(O)OP(=O)(O)OP(=O)(O)OP(=O)(O)OC[C@H]3O[C@@H](n4cnc5c(=O)[nH]c(N)nc54)[C@H](O)[C@@H]3O)[C@@H](O)[C@H]2O)c(=O)[nH]1
[1]
  IC50: > 100 µM

## O=CN/C=C/c1cc(O)ccc1O [ERBSTATIN]
L1210 [2]
  GI50: 3 µg/mL (≈ 16.7 µM)
[3]
  GI50: 3 µg/mL (≈ 16.7 µM)
L1210 [4]
  T/C: 155%
A-431
  GI50: 3 µg/mL (≈ 16.7 µM)
[5]
  IC50: 3.07 µM

## Cc1cc(O)c2c(c1)C(=O)c1cc(O)cc(O)c1C2=O [EMODIN]
HCT-15; [12]
  GI50: 26.9 µM
HCT-15; [13]
  CC50: > 100 µM
ACHN; [12]
  GI50: 19.1 µM
ACHN; [13]
  CC50: > 100 µM
OVCAR-4; [12]
  GI50: 30.2 µM
OVCAR-4; [13]
  CC50: > 100 µM
CAKI-1; [12]
  GI50: 45.7 µM
CAKI-1; [13]
  CC50: > 100 µM
[6]
  IC50: 18.5 µM
A498; [12]
  GI50: 16.6 µM
A498; [13]
  CC50: > 100 µM
OVCAR-5; [12]
  GI50: 38 µM
OVCAR-5; [13]
  CC50: > 100 µM
RPMI-8226; [12]
  GI50: 24.5 µM
RPMI-8226; [13]
  CC50: > 100 µM
UACC-257; [12]
  GI50: 28.2 µM
UACC-257; [13]
  CC50: > 100 µM
U-251; [12]
  GI50: 27.5 µM
U-251; [13]
  CC50: > 100 µM
HL-60(TB); [12]
  GI50: 26.9 µM
HL-60(TB); [13]
  CC50: > 100 µM
RXF 393; [12]
  GI50: 38.9 µM
RXF 393; [13]
  CC50: > 100 µM
COLO 205; [12]
  GI50: 17.8 µM
COLO 205; [13]
  CC50: 100 µM
HCT-116; [12]
  GI50: 36.3 µM
HCT-116; [13]
  CC50: > 100 µM
SF-268; [12]
  GI50: 25.7 µM
SF-268; [13]
  CC50: > 100 µM
KM-20L2; [12]
  GI50: 40.7 µM
KM-20L2; [13]
  CC50: > 100 µM
SW-620; [12]
  GI50: 23.4 µM
SW-620; [13]
  CC50: > 100 µM
HOP-18; [12]
  GI50: 3.98 µM
HOP-18; [13]
  CC50: > 100 µM
SK-OV-3; [12]
  GI50: 23.4 µM
SK-OV-3; [13]
  CC50: > 100 µM
[7]; RXF 631, read-out: Log10GI50 (converted)
  GI50: 22.4 µM
[7]; RXF 631, read-out: Log10LC50 (converted)
  CC50: > 100 µM
NCI-H23; NCI-H23, read-out: Log10GI50 (converted)
  GI50: 14.5 µM
NCI-H23; NCI-H23, read-out: Log10LC50 (converted)
  CC50: > 100 µM
M14; [12]
  GI50: 25.1 µM
M14; [13]
  CC50: > 100 µM
DMS-273; [12]
  GI50: 20 µM
DMS-273; [13]
  CC50: > 100 µM
SK-MEL-2; [12]
  GI50: 20.4 µM
SK-MEL-2; [13]
  CC50: > 100 µM
SNB-19; [12]
  GI50: 30.2 µM
SNB-19; [13]
  CC50: > 100 µM
HCC 2998; [12]
  GI50: 32.4 µM
HCC 2998; [13]
  CC50: > 100 µM
NCI-H522; [12]
  GI50: 14.5 µM
NCI-H522; [13]
  CC50: > 100 µM
HT-29; [12]
  GI50: 31.6 µM
HT-29; [13]
  CC50: > 100 µM
DLD-1; [12]
  GI50: 23.4 µM
DLD-1; [13]
  CC50: > 100 µM
TK-10; [12]
  GI50: 23.4 µM
TK-10; [13]
  CC50: 97.7 µM
LOX IMVI; [12]
  GI50: 17 µM
LOX IMVI; [13]
  CC50: > 100 µM
MOLT-4; [12]
  GI50: 32.4 µM
MOLT-4; [13]
  CC50: > 100 µM
[8]; [12]
  GI50: 24.5 µM
[8]; [13]
  CC50: > 100 µM
[9]; 786-0, read-out: Log10GI50 (converted)
  GI50: 17.4 µM
[9]; 786-0, read-out: Log10LC50 (converted)
  CC50: > 100 µM
SK-MEL-28; [12]
  GI50: 36.3 µM
SK-MEL-28; [13]
  CC50: > 100 µM
Malme-3M; [12]
  GI50: 11.7 µM
Malme-3M; [13]
  CC50: > 100 µM
SR; [12]
  GI50: 23.4 µM
SR; [13]
  CC50: > 100 µM
SK-MEL-5; [12]
  GI50: 2.63 µM
SK-MEL-5; [13]
  CC50: 51.3 µM
HOP-92; [12]
  GI50: 11.5 µM
HOP-92; [13]
  CC50: > 100 µM
A549; [12]
  GI50: 26.9 µM
A549; [13]
  CC50: > 100 µM
CCRF-CEM; [12]
  GI50: 38 µM
CCRF-CEM; [13]
  CC50: > 100 µM
NCI-H460; [12]
  GI50: 20 µM
NCI-H460; [13]
  CC50: > 100 µM
KM12; [12]
  GI50: 26.3 µM
KM12; [13]
  CC50: > 100 µM
SN12C; [12]
  GI50: 67.6 µM
SN12C; [13]
  CC50: > 100 µM
SNB-75; [12]
  GI50: 25.7 µM
SNB-75; [13]
  CC50: > 100 µM
SNB-78; [12]
  GI50: 49 µM
SNB-78; [13]
  CC50: 100 µM
DMS-114; [12]
  GI50: 40.7 µM
DMS-114; [13]
  CC50: > 100 µM
XF498; [12]
  GI50: 26.3 µM
XF498; [13]
  CC50: > 100 µM
NCI-H226; [12]
  GI50: 33.1 µM
NCI-H226; [13]
  CC50: > 100 µM
NCI-H322M; [12]
  GI50: 35.5 µM
NCI-H322M; [13]
  CC50: > 100 µM
SF-295; [12]
  GI50: 28.2 µM
SF-295; [13]
  CC50: > 100 µM
HOP-62; [12]
  GI50: 8.13 µM
HOP-62; [13]
  CC50: > 100 µM

## Nc1ncnc2c1ncn2[C@@H]1O[C@H](COP(=O)(O)OP(=O)(O)OP(=O)(O)OP(=O)(O)OC[C@H]2O[C@@H](n3cnc4c(N)ncnc43)[C@H](O)[C@@H]2O)[C@@H](O)[C@H]1O [DIADENOSINE TETRAPHOSPHATE]
[1]
  IC50: 46 µM

## CO[C@H]1[C@@H](OC)C[C@H](C)[C@@H](OC)C2=CC(=O)C=C(NC(=O)/C(C)=C/C=C/[C@H](OC)[C@@H](OC(N)=O)/C(C)=C/[C@@H]1C)C2=O [HERBIMYCIN]
RPMI-8226
  IC50: > 1 µM
HL-60(TB)
  IC50: > 1 µM
K562
  IC50: 0.095 µM
MOLT-4
  IC50: > 1 µM
SR
  IC50: > 1 µM
CCRF-CEM
  IC50: > 1 µM

## O=c1c(O)c(-c2cc(O)c(O)c(O)c2)oc2cc(O)cc(O)c12 [MYRICETIN]
[10]
  Ki: 1.8 µM
Insulin receptor
  Ki: 2.6 µM

## CC(C)[C@H](NC(=O)[C@H](CCCN=C(N)N)NC(=O)[C@@H](N)CC(=O)O)C(=O)N[C@@H](Cc1ccc(O)cc1)C(=O)N[C@H](C(=O)N[C@@H](Cc1cnc[nH]1)C(=O)N1CCC[C@H]1C(=O)N[C@@H](Cc1ccccc1)C(=O)O)C(C)C [[Val5] - ANGIOTENSIN II]
[11]
  Ki: 700 µM
